Measurements published in ChEMBL document CHEMBL4020831, “Discovery of GDC-0853: A Potent, Selective, and Noncovalent Bruton's Tyrosine Kinase Inhibitor in Early Clinical Development” (J Med Chem, 2018).
Converted amounts (≈) assume the structure as drawn. The source made the active and inactive calls. The calls are words filed in the database; no cut-off is given here.

Experiments:
ERBB2 = ERBB2 (Homo sapiens, UniProt P04626); assay: Inhibition of recombinant human cytoplasmic His-tagged ERBB2 expressed in baculovirus at 1 uM by Z'-LYTE assay
Homo sapiens = assay: Toxicity in human at 500 mg administered qd for 14 days; details: in vivo, 336 h
Hepatocyte = assay: Cytotoxicity against human primary hepatocytes assessed as reduction in cell viability; assay type: cell-based
[1] = Aqueous solubility of the compound in 0.1 N HCl; assay type: physicochemical; details: buffer
[2] = Plasma clearance in rat at 0.2 mg/kg, iv or 1 mg/kg, po administered as single dose via cassette dosing; assay type: ADME, organism-based
[3] = Half life in rat at 0.2 mg/kg, iv or 1 mg/kg, po administered as single dose via cassette dosing; assay type: ADME, organism-based; details: in vivo
Nav1.5 [4] = biological target: T1, Nav1.5 (Homo sapiens, UniProt Q14524); assay: Inhibition of human Nav1.5 expressed in CHO cells at 1 uM incubated for 3 to 5 mins by Qpatch clamp assay; assay type: cell-based; details: CHO cells expressing human Nav1.5
Nav1.5 [5] = biological target: T1, Nav1.5; assay: Inhibition of human Nav1.5 expressed in CHO cells at 10 uM incubated for 3 to 5 mins by QPatch clamp assay; assay type: cell-based; details: CHO cells expressing human Nav1.5
Salmonella typhimurium [6] = assay: Genotoxicity in Salmonella typhimurium TA100 after 48 to 72 hrs in presence of liver S9 fraction by Ames test; assay type: toxicity; details: salmonella enterica subsp. enterica serovar typhimurium
Salmonella typhimurium [7] = assay: Genotoxicity in Salmonella typhimurium TA1535 after 48 to 72 hrs in presence of liver S9 fraction by Ames test; assay type: toxicity; details: salmonella enterica subsp. enterica serovar typhimurium
Salmonella typhimurium [8] = assay: Genotoxicity in Salmonella typhimurium TA98 after 48 to 72 hrs in absence of liver S9 fraction by Ames test; assay type: toxicity; details: salmonella enterica subsp. enterica serovar typhimurium
Salmonella typhimurium [9] = assay: Genotoxicity in Salmonella typhimurium TA97a after 48 to 72 hrs in absence of liver S9 fraction by Ames test; assay type: toxicity; details: salmonella enterica subsp. enterica serovar typhimurium
PBL = assay: Genotoxicity in human PBL assessed as induction of micronuclei at 500 ug/ml in absence of rat liver S9 fraction by cytochalasin B-block method; assay type: toxicity, cell-based
Cytochrome P450 3A4 = Cytochrome P450 3A4 (Homo sapiens, UniProt P08684); assay: Inhibition of CYP3A4 (unknown origin); assay type: ADME
Cytochrome P450 2C19 = Cytochrome P450 2C19 (Homo sapiens, UniProt P33261); assay: Inhibition of CYP2C19 (unknown origin); assay type: ADME
BLK = BLK (Homo sapiens, UniProt P51451); assay: Inhibition of recombinant human full length His-tagged BLK expressed in baculovirus at 1 uM by Z'-LYTE assay
JAK3 = biological target: T2, JAK3 (Homo sapiens, UniProt P52333); assay: Inhibition of recombinant human catalytic GST-tagged JAK3 expressed in baculovirus at 1 uM by Z'-LYTE assay
T2 sequence (P52333 whole entry): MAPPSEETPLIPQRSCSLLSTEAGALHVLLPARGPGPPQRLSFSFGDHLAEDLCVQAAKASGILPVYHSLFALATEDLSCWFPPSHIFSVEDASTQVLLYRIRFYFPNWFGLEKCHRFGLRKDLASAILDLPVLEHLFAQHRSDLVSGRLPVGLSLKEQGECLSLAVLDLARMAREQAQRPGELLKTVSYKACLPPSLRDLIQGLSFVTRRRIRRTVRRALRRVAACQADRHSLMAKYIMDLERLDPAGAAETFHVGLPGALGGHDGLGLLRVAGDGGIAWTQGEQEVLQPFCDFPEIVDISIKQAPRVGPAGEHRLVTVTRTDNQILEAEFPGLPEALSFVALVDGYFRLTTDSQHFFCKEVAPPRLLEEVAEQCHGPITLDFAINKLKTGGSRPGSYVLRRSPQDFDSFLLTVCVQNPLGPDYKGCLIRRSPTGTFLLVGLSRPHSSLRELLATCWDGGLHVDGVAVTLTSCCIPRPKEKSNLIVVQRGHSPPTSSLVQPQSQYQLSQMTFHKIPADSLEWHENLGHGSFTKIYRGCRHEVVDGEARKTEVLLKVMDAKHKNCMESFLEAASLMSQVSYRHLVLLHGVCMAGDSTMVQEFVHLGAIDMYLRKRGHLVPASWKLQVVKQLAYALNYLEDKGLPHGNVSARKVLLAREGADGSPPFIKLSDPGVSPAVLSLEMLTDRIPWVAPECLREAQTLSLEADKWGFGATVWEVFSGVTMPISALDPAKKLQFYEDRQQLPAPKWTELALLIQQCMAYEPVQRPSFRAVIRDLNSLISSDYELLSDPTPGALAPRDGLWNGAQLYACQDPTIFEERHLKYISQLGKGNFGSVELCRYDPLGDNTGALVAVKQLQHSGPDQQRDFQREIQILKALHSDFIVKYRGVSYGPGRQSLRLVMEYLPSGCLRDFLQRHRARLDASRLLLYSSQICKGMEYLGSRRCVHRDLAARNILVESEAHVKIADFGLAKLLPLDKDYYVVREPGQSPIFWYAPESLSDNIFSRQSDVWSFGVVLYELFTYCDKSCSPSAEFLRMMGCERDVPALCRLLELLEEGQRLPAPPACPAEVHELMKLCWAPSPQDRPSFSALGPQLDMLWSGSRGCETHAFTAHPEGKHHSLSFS

Rattus norvegicus [10] = assay: Antiinflammatory activity in po dosed Lewis rat collagen-induced arthritis model assessed as reduction in ankle thickness administered qd for 16 days; assay type: functional, organism-based
Rattus norvegicus [11] = assay: Antiinflammatory activity in po dosed Lewis rat collagen-induced arthritis model assessed as reduction in ankle thickness administered bid for 16 days; assay type: functional, organism-based
Rattus norvegicus [12] = assay: Antiinflammatory activity in Lewis rat collagen-induced arthritis model assessed as reduction in ankle diameter AUC at 4 mg/kg, po administered qd for 16 days relative to control; assay type: functional; details: 384 h
Rattus norvegicus [13] = assay: Antiinflammatory activity in Lewis rat collagen-induced arthritis model assessed as reduction in ankle diameter AUC at 2 mg/kg, po administered bid for 16 days relative to control; assay type: functional; details: 384 h
Rattus norvegicus [14] = assay: Antiinflammatory activity in Lewis rat collagen-induced arthritis model assessed as reduction in ankle diameter AUC at 0.5 mg/kg, po administered bid for 16 days relative to control; assay type: functional; details: 384 h
Rattus norvegicus [15] = assay: Time at which plasma concentration stays above in vitro IC70 for BTK autophosphorylation at Y223 in rat whole blood in Lewis rat collagen-induced arthritis model at 1 mg/kg, po bid measured during 24 hrs dosing
Rattus norvegicus [16] = assay: Time at which plasma concentration stays above IC70 for BTK autophosphorylation at Y223 in rat whole blood in Lewis rat collagen-induced arthritis model at 0.5 mg/kg, po qd measured during 24 hrs dosing
Rattus norvegicus [17] = assay: Antiinflammatory activity in Lewis rat collagen-induced arthritis model assessed as reduction in bone resorption at 0.06 to 16 mg/kg, po administered qd for 16 days; assay type: functional, organism-based
Rattus norvegicus [18] = assay: Antiinflammatory activity in Lewis rat collagen-induced arthritis model assessed as reduction in ankle cartilage damage at 0.125 to 2 mg/kg, po administered bid for 16 days; assay type: functional, organism-based
Rattus norvegicus [19] = assay: Antiinflammatory activity in Lewis rat collagen-induced arthritis model assessed as reduction in bone resorption at 0.125 to 2 mg/kg, po administered bid for 16 days; assay type: functional, organism-based
[20] = Clearance in human liver microsomes at 1 uM incubated up to 60 mins by LC-MS/MS method; assay type: ADME, microsome

T1 sequence (Q14524 whole entry): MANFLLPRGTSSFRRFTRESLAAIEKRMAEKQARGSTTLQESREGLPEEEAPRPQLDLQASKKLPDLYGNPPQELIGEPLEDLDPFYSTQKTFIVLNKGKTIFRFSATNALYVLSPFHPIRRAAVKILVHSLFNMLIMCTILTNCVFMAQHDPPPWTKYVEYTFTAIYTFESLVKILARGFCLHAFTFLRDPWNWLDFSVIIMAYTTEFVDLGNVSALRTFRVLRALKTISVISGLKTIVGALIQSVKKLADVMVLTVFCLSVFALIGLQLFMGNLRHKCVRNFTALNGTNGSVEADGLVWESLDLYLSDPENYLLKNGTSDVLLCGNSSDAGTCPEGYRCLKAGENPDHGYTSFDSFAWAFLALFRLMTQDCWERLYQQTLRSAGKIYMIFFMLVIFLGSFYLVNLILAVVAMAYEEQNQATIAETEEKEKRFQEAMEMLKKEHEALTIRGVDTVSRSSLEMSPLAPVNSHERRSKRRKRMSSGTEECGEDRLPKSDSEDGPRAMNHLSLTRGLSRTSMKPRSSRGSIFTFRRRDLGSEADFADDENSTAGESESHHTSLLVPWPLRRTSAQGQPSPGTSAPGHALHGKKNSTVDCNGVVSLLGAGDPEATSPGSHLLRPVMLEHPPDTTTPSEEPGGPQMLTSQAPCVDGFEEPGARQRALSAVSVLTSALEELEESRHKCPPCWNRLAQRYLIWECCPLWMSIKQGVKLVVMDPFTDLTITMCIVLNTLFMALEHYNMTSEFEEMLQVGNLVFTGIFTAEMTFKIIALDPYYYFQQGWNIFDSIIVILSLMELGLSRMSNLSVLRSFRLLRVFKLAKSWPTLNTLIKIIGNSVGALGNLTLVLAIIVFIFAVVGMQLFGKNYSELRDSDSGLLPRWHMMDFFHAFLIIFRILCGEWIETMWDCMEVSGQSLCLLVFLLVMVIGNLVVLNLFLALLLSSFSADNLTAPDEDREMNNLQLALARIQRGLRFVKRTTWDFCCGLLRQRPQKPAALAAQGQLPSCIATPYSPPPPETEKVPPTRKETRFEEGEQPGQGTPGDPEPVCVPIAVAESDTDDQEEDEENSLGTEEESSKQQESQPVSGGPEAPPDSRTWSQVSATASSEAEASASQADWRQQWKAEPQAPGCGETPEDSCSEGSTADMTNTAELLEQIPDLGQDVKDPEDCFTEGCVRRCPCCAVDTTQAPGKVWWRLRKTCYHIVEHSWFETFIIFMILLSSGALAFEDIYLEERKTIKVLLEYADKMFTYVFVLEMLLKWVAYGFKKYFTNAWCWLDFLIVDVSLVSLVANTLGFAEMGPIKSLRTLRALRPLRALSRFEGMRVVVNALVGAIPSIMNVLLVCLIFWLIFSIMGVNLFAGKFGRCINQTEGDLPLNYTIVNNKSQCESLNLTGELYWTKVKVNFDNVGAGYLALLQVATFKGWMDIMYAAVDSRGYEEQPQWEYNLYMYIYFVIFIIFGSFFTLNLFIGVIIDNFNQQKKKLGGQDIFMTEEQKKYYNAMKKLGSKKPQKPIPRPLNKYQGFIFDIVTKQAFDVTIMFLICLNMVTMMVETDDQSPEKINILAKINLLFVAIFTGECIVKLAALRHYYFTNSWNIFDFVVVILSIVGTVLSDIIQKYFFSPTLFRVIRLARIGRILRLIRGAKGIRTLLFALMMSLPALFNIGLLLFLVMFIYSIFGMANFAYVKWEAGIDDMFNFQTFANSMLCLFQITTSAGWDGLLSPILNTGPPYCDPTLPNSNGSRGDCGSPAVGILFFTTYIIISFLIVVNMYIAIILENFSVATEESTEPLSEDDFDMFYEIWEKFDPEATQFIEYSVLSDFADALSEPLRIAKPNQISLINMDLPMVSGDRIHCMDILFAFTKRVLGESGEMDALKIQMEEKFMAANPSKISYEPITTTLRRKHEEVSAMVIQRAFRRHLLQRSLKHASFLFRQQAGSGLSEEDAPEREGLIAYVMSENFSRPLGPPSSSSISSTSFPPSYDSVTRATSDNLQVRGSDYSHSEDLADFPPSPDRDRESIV
Sequence of ERBB2 (P04626 whole entry): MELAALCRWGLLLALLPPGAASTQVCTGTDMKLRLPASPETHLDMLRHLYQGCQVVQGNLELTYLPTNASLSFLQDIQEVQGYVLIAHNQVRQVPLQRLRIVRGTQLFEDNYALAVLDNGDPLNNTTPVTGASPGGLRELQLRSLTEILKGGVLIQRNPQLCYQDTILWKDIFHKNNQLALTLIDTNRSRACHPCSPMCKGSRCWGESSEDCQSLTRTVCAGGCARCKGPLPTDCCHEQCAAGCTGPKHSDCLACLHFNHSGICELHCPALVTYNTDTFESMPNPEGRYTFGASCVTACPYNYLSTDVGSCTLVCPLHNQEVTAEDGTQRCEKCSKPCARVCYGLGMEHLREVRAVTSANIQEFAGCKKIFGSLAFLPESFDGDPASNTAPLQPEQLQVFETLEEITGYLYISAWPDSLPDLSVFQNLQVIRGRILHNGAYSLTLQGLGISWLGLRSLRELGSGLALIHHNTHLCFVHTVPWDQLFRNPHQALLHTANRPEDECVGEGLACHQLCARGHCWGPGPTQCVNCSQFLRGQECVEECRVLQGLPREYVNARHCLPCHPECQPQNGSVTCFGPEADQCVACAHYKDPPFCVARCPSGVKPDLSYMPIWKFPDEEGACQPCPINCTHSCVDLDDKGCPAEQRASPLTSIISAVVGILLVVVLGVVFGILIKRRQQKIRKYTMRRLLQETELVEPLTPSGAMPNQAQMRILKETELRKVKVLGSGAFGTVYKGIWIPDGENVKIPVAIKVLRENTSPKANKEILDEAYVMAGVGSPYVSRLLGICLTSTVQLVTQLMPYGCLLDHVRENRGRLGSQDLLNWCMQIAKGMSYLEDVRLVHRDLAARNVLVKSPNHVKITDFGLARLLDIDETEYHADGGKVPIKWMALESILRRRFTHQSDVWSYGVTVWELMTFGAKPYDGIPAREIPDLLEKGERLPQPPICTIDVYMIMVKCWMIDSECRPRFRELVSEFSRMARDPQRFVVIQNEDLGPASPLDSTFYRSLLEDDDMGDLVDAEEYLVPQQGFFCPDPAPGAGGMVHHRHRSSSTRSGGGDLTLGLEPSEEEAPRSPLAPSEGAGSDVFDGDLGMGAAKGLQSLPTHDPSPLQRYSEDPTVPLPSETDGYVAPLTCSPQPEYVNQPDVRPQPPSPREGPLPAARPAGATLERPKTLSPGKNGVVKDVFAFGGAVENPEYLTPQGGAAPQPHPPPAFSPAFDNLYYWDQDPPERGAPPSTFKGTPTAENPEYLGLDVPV
Sequence of BLK (P51451 whole entry): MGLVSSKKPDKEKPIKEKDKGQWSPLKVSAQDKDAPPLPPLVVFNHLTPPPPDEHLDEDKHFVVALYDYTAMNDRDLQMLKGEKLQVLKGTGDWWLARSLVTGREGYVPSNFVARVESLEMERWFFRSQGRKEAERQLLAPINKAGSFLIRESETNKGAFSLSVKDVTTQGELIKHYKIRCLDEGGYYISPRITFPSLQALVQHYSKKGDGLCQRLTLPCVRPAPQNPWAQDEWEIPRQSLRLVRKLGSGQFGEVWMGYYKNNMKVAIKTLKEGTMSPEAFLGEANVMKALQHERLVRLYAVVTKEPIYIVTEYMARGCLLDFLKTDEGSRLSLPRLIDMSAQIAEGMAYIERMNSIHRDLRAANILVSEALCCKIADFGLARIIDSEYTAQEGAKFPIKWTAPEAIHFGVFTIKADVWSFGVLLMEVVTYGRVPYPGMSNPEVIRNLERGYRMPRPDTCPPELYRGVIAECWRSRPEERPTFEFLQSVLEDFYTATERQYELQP
Sequence of Cytochrome P450 3A4 (P08684 whole entry): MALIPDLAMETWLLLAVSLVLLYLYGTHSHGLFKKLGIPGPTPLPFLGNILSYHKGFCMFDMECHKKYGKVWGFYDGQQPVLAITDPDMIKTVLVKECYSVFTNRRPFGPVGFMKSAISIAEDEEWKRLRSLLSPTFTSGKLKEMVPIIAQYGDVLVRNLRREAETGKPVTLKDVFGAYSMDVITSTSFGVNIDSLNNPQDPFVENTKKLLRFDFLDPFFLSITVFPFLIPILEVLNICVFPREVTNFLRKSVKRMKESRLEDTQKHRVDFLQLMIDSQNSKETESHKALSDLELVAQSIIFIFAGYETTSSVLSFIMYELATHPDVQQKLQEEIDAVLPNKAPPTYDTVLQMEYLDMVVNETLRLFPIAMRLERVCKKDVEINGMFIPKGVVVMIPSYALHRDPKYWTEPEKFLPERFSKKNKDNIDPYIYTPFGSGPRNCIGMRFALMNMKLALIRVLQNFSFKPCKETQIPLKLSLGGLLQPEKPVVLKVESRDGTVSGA
Sequence of Cytochrome P450 2C19 (P33261 whole entry): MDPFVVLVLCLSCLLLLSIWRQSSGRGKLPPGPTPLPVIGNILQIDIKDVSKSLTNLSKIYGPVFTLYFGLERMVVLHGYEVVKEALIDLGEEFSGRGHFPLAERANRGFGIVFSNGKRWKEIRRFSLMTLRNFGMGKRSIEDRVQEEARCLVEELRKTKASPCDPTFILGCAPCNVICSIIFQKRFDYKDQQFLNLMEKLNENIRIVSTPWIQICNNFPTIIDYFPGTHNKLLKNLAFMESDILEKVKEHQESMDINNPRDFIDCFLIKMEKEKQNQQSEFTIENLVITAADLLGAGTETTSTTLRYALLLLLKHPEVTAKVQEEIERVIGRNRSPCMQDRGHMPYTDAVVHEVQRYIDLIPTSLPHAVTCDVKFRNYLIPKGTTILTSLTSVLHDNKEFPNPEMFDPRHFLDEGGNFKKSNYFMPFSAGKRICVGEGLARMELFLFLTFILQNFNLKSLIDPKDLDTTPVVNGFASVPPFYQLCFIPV

**Q.** What does the source list for `C[C@H]1CN(C2COC2)CCN1c1ccc(Nc2cc(-c3ccnc(N4CCn5c(cc6c5CC(C)(C)C6)C4=O)c3CO)cn(C)c2=O)nc1` [FENEBRUTINIB]?
**A.** inhibition at 1 µM (ERBB2): -1%; Activity (Homo sapiens): Non-Toxic; IC50 (Hepatocyte): > 300 µM; solubility [1]: 35.9 mg/mL (≈ 54 mM); clearance [2]: 27.4 mL/min/kg; half-life [3]: 2.2 h; inhibition at 1 µM (Nav1.5 [4]): 0.6%; inhibition at 10 µM (Nav1.5 [5]): 1.9%; Activity (Salmonella typhimurium [6]): Non-Toxic; Activity (Salmonella typhimurium [7]): Non-Toxic; Activity (Salmonella typhimurium [8]): Non-Toxic; Activity (Salmonella typhimurium [9]): Non-Toxic; Activity (PBL): Non-Toxic; IC50 (Cytochrome P450 3A4): > 5 µM; IC50 (Cytochrome P450 2C19): > 5 µM; inhibition at 1 µM (BLK): 6%; inhibition at 1 µM (JAK3): 5%; Activity (Rattus norvegicus [10]): Dose-dependent effect; Activity (Rattus norvegicus [11]): Dose-dependent effect; inhibition in vivo at 4 mg/kg (Rattus norvegicus [12]): 89%; inhibition in vivo at 2 mg/kg (Rattus norvegicus [13]): 96%; inhibition in vivo at 0.5 mg/kg (Rattus norvegicus [14]): 79%; Time (Rattus norvegicus [15]): 12 h; Time (Rattus norvegicus [16]): 12 h; Activity (Rattus norvegicus [17]): Active; Activity (Rattus norvegicus [18]): Active; Activity (Rattus norvegicus [19]): Active; CLhep predicted at 1 µM [20]: 9.4 mL/min/kg
